These results are taken from ChEMBL document CHEMBL3994619, “Inhibition of invasion by N-trans-feruloyloctopamine via AKT, p38MAPK and EMT related signals in hepatocellular carcinoma cells” (Bioorg Med Chem Lett, 2017).

Series [1] addresses T1, MAP kinase p38 (Homo sapiens) (UniProt O15264+Q15759+Q16539+P53778). Kind of series: Reduction in p38 phosphorylation in human HCCLM3 cells at 2 mM after 48 hrs by western blot analysis. It counts as cell-based. Background: In western blotting, separated proteins are transferred to a membrane and probed.
The subject of series [2] is Huh-7. Kind of series: Anti-invasive activity in human HuH7 cells assessed as invasive cell count at 2 mM after 48 hrs using Giemsa dye by matrigel based microscopic method (reference value: 36 +/- 6). It counts as functional.
Series [3] concerns the target T1, MAP kinase p38 (Homo sapiens). In words: Reduction in p38 phosphorylation in human HuH7 cells at 2 mM after 48 hrs by western blot analysis. It counts as cell-based.
Series [4] deals with HCCLM3. In words: Anti-invasive activity in human HCCLM3 cells assessed as invasive cell count at 2 mM after 48 hrs using Giemsa dye by matrigel based microscopic method (reference value: 64.7 +/- 9.3). It counts as functional.
The test system of series [5] is HCCLM3. In words: Upregulation of E-cadherin in human HCCLM3 cells after 48 hrs by western blot analysis. It counts as functional, cell-based.
Series [6] deals with Mitogen-activated protein kinase; ERK1/ERK2 (Homo sapiens) (UniProt P27361+P28482). In words: Effect on ERK1/2 phosphorylation in human HCCLM3 cells at 2 mM after 48 hrs by western blot analysis. It counts as cell-based.
In series [7] the test system is HCCLM3. In words: Cytotoxicity against human HCCLM3 cells after 48 hrs by CCK8 assay. It counts as cell-based. The following applies: hcclm3, 48 h. (In general: Tetrazolium dyes change colour on reduction, which living cells bring about.)
In series [8] the test system is HCCLM3. In words: Antimigratory activity in human HCCLM3 cells assessed as wound closure at 2 mM after 48 hrs by inverted microscopic method. It counts as functional, cell-based.
Series [9] addresses Transcription factor p65 (Homo sapiens) (UniProt Q04206). Kind of series: Effect on p65 phosphorylation in human HCCLM3 cells at 2 mM after 48 hrs by western blot analysis. It counts as cell-based.
Series [10] has as its system HCCLM3. Kind of series: Antiproliferative activity against human HCCLM3 cells assessed as reduction in cell viability after 48 hrs by CCK8 assay. It counts as functional, cell-based. The following applies: HCCLM3, 48 h.
Series [11] relates to Huh-7. Kind of series: Antimigratory activity in human HuH7 cells assessed as wound closure at 2 mM after 48 hrs by inverted microscopic method. It counts as functional, cell-based.
The test system of series [12] is HCCLM3. Kind of series: Downregulation of slug in human HCCLM3 cells at 2 mM after 48 hrs by western blot analysis. It counts as functional, cell-based.
The species named for series [13] is Homo sapiens. Kind of series: Reduction in Akt phosphorylation in human HCCLM3 cells at 2 mM after 48 hrs by western blot analysis. It counts as cell-based.
The subject of series [14] is Huh-7. In words: Antiproliferative activity against human HuH7 cells assessed as reduction in cell viability after 48 hrs by CCK8 assay. It counts as functional, cell-based. The following applies: Huh-7, 48 h.
The species named for series [15] is Homo sapiens. Kind of series: Reduction in Akt phosphorylation in human HuH7 cells at 2 mM after 48 hrs by western blot analysis. It counts as cell-based.

Structures are written as SMILES. The source made the active and inactive calls. No cut-off for these calls is given here.

Mitogen-activated protein kinase; ERK1/ERK2 (Homo sapiens), sequence (P27361 whole entry, looked up): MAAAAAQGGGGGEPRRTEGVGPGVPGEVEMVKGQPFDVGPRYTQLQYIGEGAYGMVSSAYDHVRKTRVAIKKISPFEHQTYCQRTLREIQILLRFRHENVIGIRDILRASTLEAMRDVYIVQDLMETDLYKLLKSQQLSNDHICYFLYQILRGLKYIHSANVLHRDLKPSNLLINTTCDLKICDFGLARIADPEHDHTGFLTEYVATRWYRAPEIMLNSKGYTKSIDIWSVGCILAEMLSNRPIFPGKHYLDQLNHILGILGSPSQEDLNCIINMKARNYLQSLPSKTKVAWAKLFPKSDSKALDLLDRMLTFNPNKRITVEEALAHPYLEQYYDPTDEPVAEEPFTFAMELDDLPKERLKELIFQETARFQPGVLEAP
Mitogen-activated protein kinase; ERK1/ERK2 (Homo sapiens), sequence (P28482 whole entry, looked up): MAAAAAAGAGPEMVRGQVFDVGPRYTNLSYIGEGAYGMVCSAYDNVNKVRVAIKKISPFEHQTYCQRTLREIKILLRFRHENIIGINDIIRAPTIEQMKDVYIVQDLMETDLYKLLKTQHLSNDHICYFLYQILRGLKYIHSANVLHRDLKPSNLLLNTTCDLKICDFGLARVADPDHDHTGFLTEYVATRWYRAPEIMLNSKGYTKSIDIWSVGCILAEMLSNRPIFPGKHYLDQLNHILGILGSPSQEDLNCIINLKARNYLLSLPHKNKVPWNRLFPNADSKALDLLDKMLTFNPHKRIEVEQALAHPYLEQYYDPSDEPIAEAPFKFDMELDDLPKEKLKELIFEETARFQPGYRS
Transcription factor p65 (Homo sapiens), sequence (Q04206 whole entry): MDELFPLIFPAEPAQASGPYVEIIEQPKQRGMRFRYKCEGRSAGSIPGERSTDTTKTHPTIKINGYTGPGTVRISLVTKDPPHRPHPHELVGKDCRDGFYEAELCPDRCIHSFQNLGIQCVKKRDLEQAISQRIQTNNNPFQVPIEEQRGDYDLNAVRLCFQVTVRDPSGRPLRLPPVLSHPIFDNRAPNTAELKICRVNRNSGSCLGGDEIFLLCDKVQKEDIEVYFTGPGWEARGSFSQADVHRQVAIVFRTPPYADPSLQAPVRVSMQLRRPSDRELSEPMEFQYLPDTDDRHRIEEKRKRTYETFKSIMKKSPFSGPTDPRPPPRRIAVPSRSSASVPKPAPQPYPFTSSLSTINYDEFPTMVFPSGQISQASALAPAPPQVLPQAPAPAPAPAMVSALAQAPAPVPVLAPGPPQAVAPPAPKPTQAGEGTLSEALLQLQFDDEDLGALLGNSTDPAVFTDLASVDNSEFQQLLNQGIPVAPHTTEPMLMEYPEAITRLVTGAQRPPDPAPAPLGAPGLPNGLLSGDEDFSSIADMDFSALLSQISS

As for `COc1cc(/C=C/C(=O)NCC(O)c2ccc(O)cc2)ccc1O` (configuration not stated), the outcome (in [1]; in series [3]; in the series with HCCLM3 [5]; in the series with HCCLM3 [12]; in the series listed under Homo sapiens [13]; in the series filed under Homo sapiens [15]) was Active. Also, the Activity was 11.7 with Huh-7 [2], 23.3 with HCCLM3 [4] and “Non-Toxic” with HCCLM3 [7]. Besides, the outcome (in series [6]; with HCCLM3 [8]; in series [9]; with Huh-7 [11]) was inactive. The IC50 (as a rule, the concentration that gives 50% inhibition) with HCCLM3 [10] turned out to be 2.27 mM; in the series with Huh-7 [14], 1.99 mM.
As for `O=c1[nH]cc(F)c(=O)[nH]1` [FLUOROURACIL], the IC50 with HCCLM3 [10] was determined as 1.84 mM; in the series on Huh-7 [14], 2.98 mM.
